Measurements taken from patent publication US6703536B2, “Disposable absorbent article having a skin care composition containing an enzyme inhibitor” (The Procter & Gamble Company, priority 1998, dated 2004).
Counter-ions that a name gives are not always drawn.

What was measured:
[1] = molecular target: trypsin activity in feces; experiment: Fecal Trypsin Activity (Specific Fecal Enzyme Method); type: biochemical; details: pooled infant fecal suspension, pH 8.2, 25° C.; read-out: IC50 Specific Fecal Enzyme Methods Trypsin
Text: (§1) The following is a general description of a method for obtaining a sample of feces suitable for use in Fecal Protease Methods. However, one skilled in the art will be able to adapt the method to obtain appropriate samples of feces suitable for use in any of the Specific Fecal Protease Methods listed below (i.e., lipase, urease, and amylase) without undue experimentation.
(§2) Pooled infant feces (at least five different samples) are collected in a manner to keep them free of urine and contamination and mixed with water to obtain a weight by weight (w/w) mixture (e.g., 1:50 w/w). This mixture is then mixed thoroughly to obtain a homogeneous suspension by homogenization or sonication. […] (Also, to ensure complete linearity the final absorbance should never exceed 1.5 OD405 units). If the activity of the pooled infant feces is outside this range, it is not possible to accurately determine IC50 values for putative protease inhibitors. However, the range of enzyme activity may be adjusted by increasing or decreasing the dilution factor accordingly for each enzyme. If this is not possible, a different group of subjects should be used to obtain the sample pool.
To test the efficacy of protease inhibitors against the trypsin activity in feces, inhibitor and trypsin buffer (50 mM TRIS, 20 mM CaCl2, pH 8.2) are added in a cuvette to obtain a final volume of 0.8 mL. To this mixture, 0.1 mL of substrate (3 mM Cbz-arginine-p-nitroanilide) is added to the cuvette. The cuvette is mixed by inversion and incubated at 25° C. for 5 minutes. A volume of 0.1 mL of fecal suspension is added to the cuvette, mixed and the absorbance at 405 nm minus the absorbance at 490 nm are measured over 5 minutes at 25° C. (The absorbance at 490 nm is a correction factor for the background absorbance due to the particulate fecal material, i.e., “interference”). The rate of substrate cleavage in the presence of inhibitor (vi) is the slope of a plot relating the excess absorbance (i.e., the absorbance at 405 nm minus the absorbance at 490 nm) versus time. The same procedure is repeated without the putative inhibitor. The rate of substrate cleavage in the absence of inhibitor (v) is the slope of a plot relating the excess absorbance versus time. The rates, vi and v, and the inhibitor concentration [I] are used to calculate IC50 according to the equation expressed above.

[2] = molecular target: chymotrypsin activity in feces; experiment: Fecal Chymotrypsin Activity (Specific Fecal Enzyme Method); type: biochemical; details: pooled infant fecal suspension, pH 7.6, 25° C.; read-out: IC50 Specific Fecal Enzyme Methods Chymotryp.
Text: The following is a general description of a method for obtaining a sample of feces suitable for use in Fecal Protease Methods. However, one skilled in the art will be able to adapt the method to obtain appropriate samples of feces suitable for use in any of the Specific Fecal Protease Methods listed below (i.e., lipase, urease, and amylase) without undue experimentation. […] Pooled infant feces (at least five different samples) are collected in a manner to keep them free of urine and contamination and mixed with water to obtain a weight by weight (w/w) mixture (e.g., 1:50 w/w). This mixture is then mixed thoroughly to obtain a homogeneous suspension by homogenization or sonication. […] (Also, to ensure complete linearity the final absorbance should never exceed 1.5 OD405 units). If the activity of the pooled infant feces is outside this range, it is not possible to accurately determine IC50 values for putative protease inhibitors. However, the range of enzyme activity may be adjusted by increasing or decreasing the dilution factor accordingly for each enzyme. If this is not possible, a different group of subjects should be used to obtain the sample pool. […] The cuvette is mixed by inversion and incubated at 25° C. for 5 minutes. […] The rate of substrate cleavage in the presence of inhibitor (vi) is the slope of a plot relating the excess absorbance (i.e., the absorbance at 405 nm minus the absorbance at 490 nm) versus time. The same procedure is repeated without the putative inhibitor. The rate of substrate cleavage in the absence of inhibitor (v) is the slope of a plot relating the excess absorbance versus time. The rates, vi and v, and the inhibitor concentration [I] are used to calculate IC50 according to the equation expressed above.

[3] = molecular target: LAP activity in feces; experiment: Fecal LAP Activity (Specific Fecal Enzyme Method); type: biochemical; details: pooled infant fecal suspension, pH 7.2, 25° C.; read-out: IC50 Specific Fecal Enzyme Methods LAP
Text: as §1, §2
To test the efficacy of protease inhibitors against LAP activity in feces, inhibitor and LAP buffer (50 mM sodium phosphate, pH 7.2) are added in a cuvette to obtain a final volume of 0.95 mL. To this mixture, 0.03 mL of substrate (6 mM L-Leucine-p-nitroanilide) is added to the cuvette. The cuvette is mixed by inversion and incubated at 25° C. for 5 minutes. A volume of 0.02 mL of fecal suspension is added to the cuvette, mixed and the absorbance at 405 nm minus the absorbance at 490 nm measured over 5 minutes at 25° C. The rate of substrate cleavage in the presence of inhibitor (vi) is the slope of a plot relating the excess absorbance (i.e., the absorbance at 405 nm minus the absorbance at 490 nm) versus time. The same procedure is repeated without the putative inhibitor. The rate of substrate cleavage in the absence of inhibitor (v) is the slope of a plot relating the excess absorbance versus time. The rates, vi and v, and the inhibitor concentration [I] are used to calculate IC50 according to the equation expressed above.

[4] = molecular target: protease activity in feces; experiment: General Fecal Enzymes Method (casein-resorufin cleavage); type: biochemical, infant; details: fecal suspension, casein-resorufin substrate, pH 7.8, 37° C. for 60 minutes
Text: as §2
The general method described above for obtaining a sample of feces suitable for use in Specific Fecal Enzyme Methods can be easily adapted by one skilled in the art to obtain appropriate samples of feces suitable for use in the General Fecal Enzymes Method listed below without undue experimentation.
To test the efficacy of protease inhibitors against the protease activity in feces, 50 μL of inhibitor and 50 μL of fecal suspension are added to a 1.5 mL microcentrifuge tube. The microcentrifuge tube is mixed by inversion and incubated at 25° C. for 45 minutes. Then, 50 μL of protease buffer (200 mM TRIS buffer containing 20 mM CaCl2, pH 7.8) is added to the microcentrifuge tube. The microcentrifuge tube is again mixed by inversion and incubated at 25° C. for 45 minutes. […] The microcentrifuge tube is again mixed by inversion and incubated at 37° C. for 60 minutes for the substrate cleavage reaction to take place. Then, 480 μL of trichloroacetic acid (5% w/v) is added to stop the reaction and precipitate any unreacted casein-resorufin. The microcentrifuge tube is mixed by inversion incubated at 37° C. for 15 minutes. […] Then, 400 μL of the supernatant is added to 600 μL of assay buffer (0.5 M TRIS, pH 8.8) in a cuvette. […] The same procedure is repeated without the putative inhibitor. […] Before the start of the reaction, A and Ai are nearly zero. […] The rates, vi and v, and the inhibitor concentration [I] are used to calculate IC50 according to the equation expressed above.

For `O=C(O)CN(CCN(CC(=O)O)CC(=O)O)CC(=O)O` [EDTA, ethylenediamine tetraacetic acid], the IC50 [1] was 100 µM, the IC50 [2] was 100 µM and the IC50 [3] was over 3000 µM.
`NCCc1ccc(S(=O)(=O)F)cc1` [4-(2-aminoethyl)-benzenesulfonylfluoride hydrochloride] was tested, and the IC50 [4] was 217 µM.
